Source: US20110275583A1, “Synergistic active compound combinations” (priority 2010, published 2011)
Where two headings read alike, the source gives them in different places.

Assays:
Format in all cases: in vivo
[1] = tested on: larvae of the mustard beetle (Phaedon cochleariae); experiment: Phaedon cochleariae larvae test (sprayed cabbage leaves); conditions: single active compound
Text: (§1) The expected action for a given combination of two active compounds can be calculated as follows, using the formula of S. R. Colby, Weeds 15 (1967), 20-22: • If • X is the kill rate, expressed as % of the untreated control, when employing active compound A at an application rate of m g/ha or in a concentration of in ppm, • Y is the kill rate, expressed as % of the untreated control, when employing active compound B at an application rate of n g/ha or in a concentration of n ppm and • E is the kill rate, expressed as % of the untreated control, when employing active compounds A and B at application rates of m and n g/ha or in a concentration of m and n ppm, • then
(§2) If the actual kill rate exceeds the calculated value, the action of the combination is superadditive, i.e. a synergistic effect is present. In this case, the actually observed kill rate must exceed the value calculated using the above formula for the expected kill rate (E).
(§3) Solvent: 78 parts by weight of acetone • • 1.5 parts by weight of dimethylformamide
(§4) Emulsifier: 0.5 part by weight of alkylaryl polyglycol ether
(§5) To produce a suitable preparation of active compound, 1 part by weight of active compound is mixed with the stated amounts of solvent and emulsifier, and the concentrate is diluted with emulsifier-containing water to the desired concentration.
Cabbage leaves (Brassica oleracea) are treated by spraying with the active compound preparation of the desired concentration and populated with larvae of the mustard beetle (Phaedon cochleariae) while the leaves are still moist.
After the desired period of time, the kill in % is determined. 100% means that all beetle larvae have been killed; 0% means that none of the beetle larvae have been killed. The kill rates determined are entered into Colby's formula.

[2] = tested on: armyworm (Spodoptera frugiperda); experiment: Spodoptera frugiperda larvae test (sprayed cabbage leaves); conditions: single active compound
Text: as §1, §2, §3, §4, §5
Cabbage leaves (Brassica oleracea) are treated by being sprayed with the preparation of active compound of the desired concentration and are populated with the armyworm (Spodoptera frugiperda) while the leaves are still moist.
After the desired period of time, the kill in % is determined. 100% means that all caterpillars have been killed; 0% means that none of the caterpillars have been killed. The kill rates determined are entered, into Colby's formula.

[3] = tested on: green peach aphid (Myzus persicae); experiment: Myzus persicae test (spray treatment of infested cabbage leaves)
Text: as §1, §2, §3, §4, §5
Cabbage leaves (Brassica oleracea) which are heavily infested by the green peach aphid (Myzus persicae) are treated by spraying with the active compound preparation of the desired concentration.
After the desired period of time, the kill in % is determined. 100% means that all of the aphids have been killed; 0% means that none of the aphids have been killed. The kill rates determined are entered into Colby's formula.

[4] = tested on: greenhouse red spider mite (Tetranychus urticae); experiment: Tetranychus test, OP-resistant/spray treatment (bean leaf discs); conditions: single active compound; for pest or weed control at 4 g/ha / pest or weed control at 20 g/ha / pest or weed control at 500 g/ha / pest or weed control at 100 g/ha: Tetranychus urticae, foliar
Text: as §1, §2, §3, §4, §5
Discs of bean leaves (Phaseolus vulgaris) which are infested by all stages of the greenhouse red spider mite (Tetranychus urticae) are sprayed with an active compound preparation of the desired concentration.
After the desired period of time, the effect in % is determined. 100% means that all of the spider mites have been killed; 0% means that none of the spider mites have been killed.

[5] = Phaedon cochleariae, 48 h, 2 d, read-out: Kill in % after 2 d
[6] = Phaedon cochleariae, 144 h, 6 d, read-out: Kill in % after 6 d
[7] = Spodoptera frugiperda, 48 h, 2 d, read-out: Kill in % after 2 d
[8] = Spodoptera frugiperda, 144 h, 6 d, read-out: Kill in % after 6 d
[9] = Myzus persicae, 24 h, after 1 d, read-out: Kill in % after 1d
[10] = Myzus persicae, 144 h, single active compound, 6 d, read-out: Kill in % after 6 d
[11] = 48 h, 2 d, read-out: Kill in % after 2 d
[12] = 144 h, 6 d, read-out: Kill in % after 6 d
[13] = Phaedon cochleariae, 48 h, 0.8 g/ha, 2 d, read-out: Kill in % after 2 d

Fc1cncc(-c2ncc(-c3cccc(-c4ncccn4)n3)s2)c1 [compound of the formula (I-3)]
pest or weed control at 4 g/ha [1, 5]: 0%
pest or weed control at 20 g/ha ([1]; Phaedon cochleariae, 48 h, 20 g/ha, 2 d, read-out: Kill in % after 2 d): 0%
pest or weed control at 100 g/ha [1, 5]: 0%
pest or weed control at 500 g/ha [1, 5]: 0%
pest or weed control at 4 g/ha [1, 6]: 0%
pest or weed control at 100 g/ha [1, 6]: 0%
pest or weed control at 500 g/ha [1, 6]: 0%
pest or weed control at 500 g/ha [2, 7]: 0%
pest or weed control at 20 g/ha ([2]; Spodoptera frugiperda, 144 h, 20 g/ha, 6 d, read-out: Kill in % after 6 d): 0%
pest or weed control at 100 g/ha [2, 8]: 0%
pest or weed control at 500 g/ha [2, 8]: 0%
pest or weed control at 4 g/ha [3, 9]: 0%
pest or weed control at 20 g/ha [3, 9]: 0%
pest or weed control at 100 g/ha ([3]; Myzus persicae, 24 h, 100 g/ha, after 1 d, read-out: Kill in % after 1d): 0%
pest or weed control at 500 g/ha ([3]; Myzus persicae, 24 h, 500 g/ha, after 1 d, read-out: Kill in % after 1d): 0%
pest or weed control at 4 g/ha [3, 10]: 70%
pest or weed control at 20 g/ha [3, 10]: 70%
pest or weed control at 4 g/ha [4, 11]: 0%
pest or weed control at 20 g/ha [4, 11]: 0%
pest or weed control at 500 g/ha [4, 11]: 0%
pest or weed control at 4 g/ha [4, 12]: 0%
pest or weed control at 20 g/ha [4, 12]: 0%
pest or weed control at 100 g/ha [4, 12]: 0%
pest or weed control at 500 g/ha [4, 12]: 0%

CC1(C)[C@H](C(=O)O[C@H](C#N)c2cccc(Oc3ccccc3)c2)[C@@H]1C=C(Br)Br [deltamethrin]
pest or weed control at 0.8 g/ha [1, 13]: 67%
pest or weed control at 0.032 g/ha ([2]; Spodoptera frugiperda, 144 h, 0.032 g/ha, 6 d, read-out: Kill in % after 6 d): 33%
pest or weed control at 0.032 g/ha [3, 9]: 70%

N#Cc1nn(-c2c(Cl)cc(C(F)(F)F)cc2Cl)c(N)c1[S+]([O-])C(F)(F)F (centres unmarked) [fipronil]
pest or weed control at 0.8 g/ha [1, 13]: 50%
pest or weed control at 4 g/ha [2, 8]: 0%
pest or weed control at 100 g/ha [4, 12]: 0%

CNC(=O)Oc1cc(C)c(SC)c(C)c1 [methiocarb]
pest or weed control at 100 g/ha [1, 5]: 50%
pest or weed control at 100 g/ha [2, 7]: 0%

FC(F)(F)c1ccc(OCCCOc2c(Cl)cc(OCC=C(Cl)Cl)cc2Cl)nc1 [pyridalyl]
pest or weed control at 4 g/ha [2, 8]: 17%
pest or weed control at 0.8 g/ha ([3]; Myzus persicae, 144 h, 0.8 g/ha, single active compound, 6 d, read-out: Kill in % after 6 d): 0%
pest or weed control at 20 g/ha [4, 12]: 10%

CC1(C)C(C=C(Cl)Cl)C1C(=O)OC(C#N)c1ccc(F)c(Oc2ccccc2)c1 (stereo not drawn) [β-cyfluthrin, beta-cyfluthrin]
pest or weed control at 0.8 g/ha ([1]; Phaedon cochleariae, 144 h, 0.8 g/ha, 6 d, read-out: Kill in % after 6 d): 33%
pest or weed control at 0.16 g/ha ([2]; Spodoptera frugiperda, 144 h, 0.16 g/ha, 6 d, read-out: Kill in % after 6 d): 0%
pest or weed control at 0.032 g/ha [3, 9]: 0%
pest or weed control at 4 g/ha [4, 12]: 0%

emamectin benzoate
Kill in % after 2 d ([1]; 0.8 g/ha, 2 d): 50%
Kill in % after 2 d ([2]; 0.16 g/ha, 2 d): 0%
Kill in % after 6 d ([3]; 0.16 g/ha, single active compound, 6 d): 0%
Kill in % after 1d ([3]; 0.8 g/ha, after 1 d): 0%
Kill in % after 2 d ([4]; 0.032 g/ha, 2 d): 0%
